Data set [1] can be described thus: In vitro release of lidocaine from silicone tube devices in water at about 37° C. The conditions noted are these: silicone tubes about 3 cm, payload about 60 mg. Format: physicochemical. As to the method:
A study was performed to determine the feasibility of delivering drug through the wall of a drug reservoir via diffusion. Devices were formed form silicone tubes having an inner diameter of about 0.060 inches, an outer diameter of 0.076 inches, and a length of about 3 cm. […] Some of the devices included an aperture formed through the tube wall, the aperture having a diameter of 150 μm. […] The devices were tested in vitro in water at about 37° C. […] Another study was performed to investigate the feasibility of delivering drug from a device through both a wall of a drug reservoir and from an aperture in the wall of the drug reservoir. Devices were formed form silicone tubes having a length of about 3 cm. […] The devices were tested in vitro in water at about 37° C.

Data set [2] deals with IC patients. Particulars: cited from earlier work.

Where two headings read alike, the source gives them in different places.

The values below come from US9114111B2, “Methods for sustained treatment of bladder pain and irritative voiding” (priority 2011, dated 2015).

As for `CCN(CC)CC(=O)Nc1c(C)cccc1C` [lidocaine base], in data set [1], the “release from silicone tube with and without apertures” value is “can be released from a silicone tube without any apertures”.
For the compound `CCN(CC)CC(=O)Nc1c(C)cccc1C` [lidocaine], the mean pain score is given as 1.8 in data set [2] (immediately following treatment, prior to treatment 6.0); 3.7 in data set [2] (the next day); 1.2 in data set [2] (with a second instillation). Besides, the duration of effect result in data set [2] (single lidocaine instillation) was “approximately 24 hours”.
